Reference: patent publication US20160030440A1, “ANTI-TUMORAL COMPOSITION COMPRISING A PI3KBETA-SELECTIVE INHIBITOR AND A PI3KALPHA-SELECTIVE INHIBITOR” (SANOFI, priority 2013, published 2016)

What was measured:
mTOR [1] = target: T1, mTOR (Homo sapiens, UniProt P42345); experiment: mTOR inhibition; assay type: biochemical; conditions: up to 10 μM
PC-3 cells = experiment: In vitro anti-proliferative activity, CelltiterGlo, ray design; assay type: cell-based, human; conditions: PC-3, single agent, 96 hours; brackets: interval
Method: The human prostate cancer PC-3 cell line was purchased at ATCC (Ref number CRL-1435). The PC-3 cells were cultured in DMEM High Glucose medium supplemented with 10% FBS and 2 mM L-Glutamine.
They were diluted serially, in DMSO following a 3 or 3.3-fold dilution step: then each solution was diluted 50-fold in culture medium containing 10% serum before being added onto cells with a 20-fold dilution factor. The DMSO concentration was 0.1% in controls and in all treated wells.
(§1) A ray design method was used allowing the characterization of the interaction of the two compounds for several fixed proportion in the mixture. The ray design includes one ray for each single agent and 19 combination rays.
PC-3 cells were plated at 1,000 cells/well in 384-well plates in appropriate culture medium and incubated for 6 hours at 37° C., 5% CO2. […] Cell growth was evaluated by measuring intracellular ATP using CelltiterGlo® reagent (Promega) according to the manufacturer's protocol. Briefly, CellTiterGlo® was added to each plate, incubated for 1 hour then luminescent signal was read on the MicroBeta Luminescent plate reader. Three experiments have been performed on the cell line. […]
Growth inhibition percentage (GI %) was calculated according to the following equation: […]

HEC-116 cells = experiment: as above; assay type: cell-based, human; conditions: HEC-116, single agent, 96 hours; brackets: interval
Method: The human endometrium adenocarcinoma cell line HEC-116 cell line was purchased at JCRB (Ref number JCRB1124 Batch 11072005). The HEC-116 cells were cultured in MEMa medium supplemented with 15% FBS and 2 mM L-Glutamine.
Compounds (I) and (II) dilutions were prepared according to the material and methods of example 1. The final concentrations tested were defined by ray design method described below. The DMSO concentration was 0.1% in controls and in all treated wells.
as §1
HEC-116 cells were plated at 3,000 cells/well in 384-well plates in appropriate culture medium and incubated for 6 hours at 37° C., 5% CO2. […] Cell growth was evaluated by measuring intracellular ATP using CelltiterGlo® reagent (Promega) according to the manufacturer's protocol. Briefly, CellTiterGlo® was added to each plate, incubated for 1 hour then luminescent signal was read on the MicroBeta Luminescent plate reader.
Three experiments have been performed on this cell line. For each experiment, two 384-well plates were used allowing working with two replicates for combination rays and with four replicates for single agent rays. […]

PI3Kdelta = PI3Kdelta (Homo sapiens, UniProt O00329); conditions: PI3Kβ versus PI3Kdelta; cited from earlier work
PI3Kalpha = PI3Kalpha (Homo sapiens, UniProt P42336); conditions: PI3Kβ versus PI3Kalpha; cited from earlier work
PI3Kgamma = PI3Kgamma (Homo sapiens, UniProt P48736); conditions: PI3Kβ versus PI3Kgamma; cited from earlier work
mTOR [2] = target: T1, mTOR; conditions: PI3Kβ versus mTOR; cited from earlier work
294 other kinases = conditions: at 10 μM; cited from earlier work

PI3Kalpha, sequence (P42336 whole entry, species assumed): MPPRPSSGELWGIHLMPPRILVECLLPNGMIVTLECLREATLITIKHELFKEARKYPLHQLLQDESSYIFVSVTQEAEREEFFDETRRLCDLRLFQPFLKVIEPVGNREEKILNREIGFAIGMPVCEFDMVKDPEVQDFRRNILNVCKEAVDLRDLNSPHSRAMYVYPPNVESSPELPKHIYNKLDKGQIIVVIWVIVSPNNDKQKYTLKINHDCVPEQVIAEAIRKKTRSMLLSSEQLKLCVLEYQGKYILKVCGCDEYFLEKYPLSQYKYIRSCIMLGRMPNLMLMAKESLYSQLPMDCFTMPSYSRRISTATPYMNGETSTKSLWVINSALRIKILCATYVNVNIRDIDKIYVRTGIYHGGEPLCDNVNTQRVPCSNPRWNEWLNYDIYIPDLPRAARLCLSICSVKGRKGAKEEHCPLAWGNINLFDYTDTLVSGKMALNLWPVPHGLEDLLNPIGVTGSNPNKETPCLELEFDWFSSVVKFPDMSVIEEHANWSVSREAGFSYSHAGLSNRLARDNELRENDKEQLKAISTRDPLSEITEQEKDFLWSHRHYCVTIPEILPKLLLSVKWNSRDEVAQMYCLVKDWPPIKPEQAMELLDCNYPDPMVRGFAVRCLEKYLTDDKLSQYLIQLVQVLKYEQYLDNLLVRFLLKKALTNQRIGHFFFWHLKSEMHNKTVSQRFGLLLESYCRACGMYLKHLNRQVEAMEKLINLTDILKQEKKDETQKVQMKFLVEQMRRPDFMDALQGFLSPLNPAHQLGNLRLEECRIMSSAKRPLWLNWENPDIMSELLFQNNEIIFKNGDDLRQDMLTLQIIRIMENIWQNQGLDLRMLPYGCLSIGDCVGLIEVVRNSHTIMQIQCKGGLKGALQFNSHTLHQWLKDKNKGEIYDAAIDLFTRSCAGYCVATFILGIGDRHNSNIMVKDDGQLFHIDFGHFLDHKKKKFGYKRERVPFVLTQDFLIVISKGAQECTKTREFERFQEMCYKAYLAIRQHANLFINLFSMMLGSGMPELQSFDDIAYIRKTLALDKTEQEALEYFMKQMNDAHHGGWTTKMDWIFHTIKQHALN
PI3Kalpha, sequence (P27986 whole entry partner, species assumed): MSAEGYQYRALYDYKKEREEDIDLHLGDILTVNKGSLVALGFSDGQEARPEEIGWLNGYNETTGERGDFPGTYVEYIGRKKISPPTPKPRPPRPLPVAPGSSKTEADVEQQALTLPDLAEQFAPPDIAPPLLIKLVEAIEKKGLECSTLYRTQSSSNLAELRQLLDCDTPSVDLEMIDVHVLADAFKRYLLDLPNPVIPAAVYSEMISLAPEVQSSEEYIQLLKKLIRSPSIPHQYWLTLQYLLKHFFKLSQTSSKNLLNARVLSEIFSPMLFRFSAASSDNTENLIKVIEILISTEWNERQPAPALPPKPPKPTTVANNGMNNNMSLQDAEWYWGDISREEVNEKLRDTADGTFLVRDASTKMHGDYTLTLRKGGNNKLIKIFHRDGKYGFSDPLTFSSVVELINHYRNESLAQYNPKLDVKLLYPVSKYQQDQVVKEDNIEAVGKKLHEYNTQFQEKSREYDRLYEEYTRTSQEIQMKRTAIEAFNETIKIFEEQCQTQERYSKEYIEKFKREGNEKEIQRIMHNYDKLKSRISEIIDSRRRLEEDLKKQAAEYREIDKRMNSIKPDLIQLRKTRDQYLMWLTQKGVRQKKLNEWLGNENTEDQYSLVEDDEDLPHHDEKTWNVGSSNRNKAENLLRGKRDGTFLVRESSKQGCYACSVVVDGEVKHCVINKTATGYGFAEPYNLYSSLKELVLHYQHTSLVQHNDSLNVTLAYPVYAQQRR
PI3Kdelta, sequence (O00329 whole entry, species assumed): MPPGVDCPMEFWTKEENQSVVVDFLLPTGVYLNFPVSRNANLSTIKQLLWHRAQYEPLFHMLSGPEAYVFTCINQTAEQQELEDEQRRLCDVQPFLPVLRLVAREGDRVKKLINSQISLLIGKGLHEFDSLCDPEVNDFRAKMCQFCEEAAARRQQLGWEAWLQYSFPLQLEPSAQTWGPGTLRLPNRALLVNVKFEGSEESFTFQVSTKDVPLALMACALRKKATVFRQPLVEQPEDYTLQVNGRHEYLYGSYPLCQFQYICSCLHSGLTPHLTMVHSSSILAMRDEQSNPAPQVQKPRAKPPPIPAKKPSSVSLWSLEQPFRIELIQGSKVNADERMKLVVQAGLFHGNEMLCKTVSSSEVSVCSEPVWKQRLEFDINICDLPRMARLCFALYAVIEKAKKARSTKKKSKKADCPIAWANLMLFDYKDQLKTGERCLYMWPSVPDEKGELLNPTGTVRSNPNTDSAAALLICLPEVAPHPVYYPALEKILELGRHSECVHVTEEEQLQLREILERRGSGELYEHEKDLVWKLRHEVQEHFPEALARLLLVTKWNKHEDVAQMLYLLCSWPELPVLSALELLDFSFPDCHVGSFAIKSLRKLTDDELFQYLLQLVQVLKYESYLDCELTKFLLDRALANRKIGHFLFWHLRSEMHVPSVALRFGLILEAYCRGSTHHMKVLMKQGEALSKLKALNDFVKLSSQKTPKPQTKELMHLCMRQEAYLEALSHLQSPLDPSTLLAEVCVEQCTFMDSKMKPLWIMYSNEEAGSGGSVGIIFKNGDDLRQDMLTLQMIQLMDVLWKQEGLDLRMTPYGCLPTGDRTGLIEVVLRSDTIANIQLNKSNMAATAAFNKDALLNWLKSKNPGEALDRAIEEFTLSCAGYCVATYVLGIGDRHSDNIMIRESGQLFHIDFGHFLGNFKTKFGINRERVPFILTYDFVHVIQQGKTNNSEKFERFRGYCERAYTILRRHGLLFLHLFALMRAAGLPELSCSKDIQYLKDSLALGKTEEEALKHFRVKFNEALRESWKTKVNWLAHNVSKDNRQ
PI3Kdelta, sequence (P27986 whole entry partner, species assumed): as the sequence (P27986 whole entry partner, species assumed) above
PI3Kgamma, sequence (P48736 whole entry, species assumed): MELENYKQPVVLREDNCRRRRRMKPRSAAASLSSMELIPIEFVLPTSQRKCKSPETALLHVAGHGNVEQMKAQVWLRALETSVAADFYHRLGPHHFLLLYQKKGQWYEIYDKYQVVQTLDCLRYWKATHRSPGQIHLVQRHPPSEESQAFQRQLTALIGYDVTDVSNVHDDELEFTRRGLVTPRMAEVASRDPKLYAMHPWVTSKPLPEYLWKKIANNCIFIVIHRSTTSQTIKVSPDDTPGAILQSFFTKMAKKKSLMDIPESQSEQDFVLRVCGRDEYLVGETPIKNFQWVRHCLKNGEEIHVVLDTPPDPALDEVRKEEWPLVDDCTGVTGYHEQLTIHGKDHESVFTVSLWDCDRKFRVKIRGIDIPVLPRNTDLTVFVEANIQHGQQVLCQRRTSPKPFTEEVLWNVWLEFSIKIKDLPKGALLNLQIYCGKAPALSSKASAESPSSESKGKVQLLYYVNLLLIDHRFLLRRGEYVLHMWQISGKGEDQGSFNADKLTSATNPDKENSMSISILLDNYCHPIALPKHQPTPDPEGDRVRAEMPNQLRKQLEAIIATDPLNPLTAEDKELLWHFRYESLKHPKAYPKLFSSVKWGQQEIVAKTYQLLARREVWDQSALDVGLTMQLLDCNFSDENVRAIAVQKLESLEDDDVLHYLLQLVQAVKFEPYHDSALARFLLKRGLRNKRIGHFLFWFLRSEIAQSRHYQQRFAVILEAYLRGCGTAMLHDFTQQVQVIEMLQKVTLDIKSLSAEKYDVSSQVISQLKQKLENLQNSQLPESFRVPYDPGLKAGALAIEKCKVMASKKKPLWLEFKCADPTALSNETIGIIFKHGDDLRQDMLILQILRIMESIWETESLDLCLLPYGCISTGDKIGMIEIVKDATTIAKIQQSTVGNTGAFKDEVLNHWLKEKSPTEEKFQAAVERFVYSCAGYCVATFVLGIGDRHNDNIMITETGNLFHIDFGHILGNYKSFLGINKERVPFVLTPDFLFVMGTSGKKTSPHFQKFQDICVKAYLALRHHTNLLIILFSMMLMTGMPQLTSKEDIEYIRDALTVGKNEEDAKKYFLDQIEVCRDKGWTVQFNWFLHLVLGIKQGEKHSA

Compound	inhibition of mTOR (mTOR [1])	Absolute IC40 (growth inhibition 40%) (PC-3 cells)	Absolute IC40 (growth inhibition 40%) (HEC-116 cells)	selectivity over PI3Kdelta (PI3Kdelta)	selectivity over PI3Kalpha (PI3Kalpha)	selectivity over PI3Kgamma (PI3Kgamma)	selectivity over mTOR (mTOR [2])	inhibition of 294 other kinases (294 other kinases)
C[C@H]1Cc2ccccc2N1C(=O)Cc1nc(N2CCOCC2)cc(=O)[nH]1 [compound (I), 2-{2-[(2S)-2-methyl-2,3-dihydro-1H-indol-1-yl]-2-oxoethyl}-6-(morpholin-4-yl)pyrimidin-4(3H)-one]	not inhibit	20,200 nM	12,400 nM					
Cc1nc(NC(=O)N2CCC[C@H]2C(N)=O)sc1-c1ccnc(C(C)(C)C(F)(F)F)c1 [compound (II), (2S)-N1-[4-Methyl-5-[2-(2,2,2-trifluoro-1,1-dimethylethyl)-4-pyridinyl]-2-thiazolyl]-1,2-pyrrolidinedicarboxamide]		14,700 nM	8,630 nM					
Cc1c(Cn2c(C)nc3c(C(=O)O)cc(N4CCOCC4)cc32)cccc1C(F)(F)F [compound (III)]				12 fold	> 1000 fold	> 1000 fold	> 1000 fold	less than 30%
